ChEMBL document CHEMBL2203176, “Structure-based bioisosterism design, synthesis and biological evaluation of novel 1,2,4-triazin-6-ylthioacetamides as potent HIV-1 NNRTIs” (Bioorg Med Chem Lett, 2012)

What was measured:
[1] = tested on: Human immunodeficiency virus 2; test: Antiviral activity against HIV2 ROD infected in human MT4 cells assessed as inhibition of virus-induced cytopathicity by MTT assay; type: functional, organism-based; conditions: Human immunodeficiency virus 2, ISOLATE ROD
[2] = tested on: Human immunodeficiency virus 1; test: Antiviral activity against HIV1 3B infected in human MT4 cells assessed as inhibition of virus-induced cytopathicity by MTT assay; type: functional, organism-based; conditions: Human immunodeficiency virus 1, 3B
[3] = Cytotoxicity against human MT4 cells by MTT assay; type: cell-based
[4] = Selectivity index, ratio of CC50 for human MT4 cells to EC50 for HIV1 3B; type: toxicity, cell-based; conditions: read-out: Ratio CC50/EC50
[5] = Selectivity index, ratio of CC50 for human MT4 cells to EC50 for HIV2 ROD; type: toxicity, cell-based; conditions: read-out: Ratio CC50/EC50
[6] = tested on: Human immunodeficiency virus 1; test: Antiviral activity against HIV1 RES056 harboring reverse transcriptase K103N/Y181C mutant infected in human MT4 cells assessed as inhibition of virus-induced cytopathicity by MTT assay; type: functional, organism-based; conditions: Human immunodeficiency virus 1, RES056, MT4
[7] = Selectivity index, ratio of CC50 for human MT4 cells to EC50 for HIV1 RES056 harboring reverse transcriptase K103N/Y181C mutant; type: toxicity, cell-based; conditions: read-out: Ratio CC50/EC50

Compound	EC50 [1]	EC50 [2]	CC50 [3]	selectivity ratio [4]	selectivity ratio [5]	EC50 [6]	selectivity ratio [7]
O=C(CSc1nncnc1-c1cccc2ccccc12)Nc1ccc(Cl)cc1Cl	> 254 µM	> 254000 nM	254 µM	< 1	< 1	–	–
Cc1ccccc1NC(=O)CSc1nncnc1-c1cccc2ccccc12	> 158 µM	828 nM	158 µM	194	< 1	> 158 µM	< 1
COC(=O)c1ccc(NC(=O)CSc2nncnc2-c2cccc3ccccc23)c(Br)c1	> 173 µM	69 nM	173 µM	2560	< 1	25 µM	7
CCOC(=O)c1ccc(NC(=O)CSc2nncnc2-c2cccc3ccccc23)c(Br)c1	> 105 µM	210 nM	105 µM	524	< 1	> 105 µM	< 1
CCOC(=O)c1ccc(NC(=O)CSc2nncnc2-c2cccc3ccccc23)c(Cl)c1	> 150 µM	205 nM	150 µM	729	< 1	> 150 µM	< 1
O=C(CSc1nncnc1-c1cccc2ccccc12)Nc1ccc([N+](=O)[O-])cc1Cl	> 150 µM	> 150000 nM	150 µM	< 1	< 1	–	–
O=C(CSc1nncnc1-c1cccc2ccccc12)N1CCc2ccccc2C1	> 13 µM	751 nM	13 µM	17	< 1	> 13 µM	< 1
Cc1cnc(NC(=O)CSc2nncnc2-c2ccccc2Cl)c(Br)c1	> 144 µM	> 31000 nM	144 µM	< 1	< 1	–	–
Cc1ccc2sc(NC(=O)CSc3nncnc3-c3ccccc3Cl)nc2c1	> 32 µM	> 32000 nM	137 µM	< 1	< 1	–	–
O=C(CSc1nncnc1-c1ccccc1Cl)c1ccc(Br)cc1Br	> 28 µM	> 28000 nM	28 µM	< 1	< 1	–	–
O=C(CSc1nncnc1-c1ccccc1Cl)c1ccc(Cl)c(Cl)c1	> 33 µM	6200 nM	33 µM	5	< 1	> 33 µM	–
O=C(CSc1nncnc1-c1ccccc1Cl)N1CCCc2ccccc21	> 35 µM	> 35000 nM	35 µM	< 1	< 1	–	–
O=C(CSc1nncnc1-c1cccc2ccccc12)Nc1cccnc1Cl	> 44 µM	59 nM	44 µM	751	< 1	7 µM	6
O=C(CSc1nncnc1-c1ccccc1Cl)Nc1ccccc1Cl	> 90 µM	–	–	–	< 1	≥ 55 µM	≤ 2
CC(C)Nc1cccnc1N1CCN(C(=O)c2cc3cc(NS(C)(=O)=O)ccc3[nH]2)CC1 [DELAVIRDINE]	–	32 nM	> 36 µM	–	–	> 36 µM	< 1
O=C1Nc2ccc(Cl)cc2[C@@](C#CC2CC2)(C(F)(F)F)O1 [EFAVIRENZ]	–	–	> 6.3 µM	–	–	–	–
Cc1ccnc2c1NC(=O)c1cccnc1N2C1CC1 [NEVIRAPINE]	–	–	> 15 µM	–	–	11 µM	–
Nc1ccn([C@H]2CC[C@@H](CO)O2)c(=O)n1 [ZALCITABINE]	1.3 µM	1000 nM	> 95 µM	68	> 74	–	–
Cc1cn([C@H]2C[C@H](N=[N+]=[N-])[C@@H](CO)O2)c(=O)[nH]c1=O [ZIDOVUDINE]	0.004 µM	–	–	8300	56900	0.009 µM	29600
